Test results from patent US20250171428A1, “CRYSTALLINE FORMS OF 6-((5-METHYL-3-(6-METHYLPYRIDIN-3-YL)ISOXAZOL-4- YL)METHOXY)- N -(TETRAHYDRAPYRAN-4-YL)PYRIDAZINE-3-CARBOXAMIDE” (Hoffmann-La Roche Inc., priority 2022, published 2025).

Tests used:
Assay type in all cases: physicochemical
[1] = Competing long-term slurry equilibration experiments including Form A and Form B; details: competing slurries of Form A and Form B, various solvents, 5° C. to 65° C.; all conditions tested
Experimental: The competing long-term slurry equilibration experiments including Form A and Form B were performed in various solvents in the temperature range from 5° C. to 65° C.

[2] = Slurry of Form 4 in various solvents and solvent/water mixtures; details: 20° C. to 60° C.
[3] = Transformation of Form 4 at elevated temperature; details: temperatures >110° C.

stability of the crystalline form [1]	solid form transformation in slurry [2]	solid form transformation on heating [3]	Structure (SMILES)
superior stability			Cc1ccc(-c2noc(C)c2COc2ccc(C(=O)NC3CCOCC3)nn2)cn1 [Form B, 6-((5-methyl-3-(6-methylpyridin-3-yl)isoxazol-4-yl)methoxy)-N-(tetrahydropyran-4-yl)pyridazine-3-carboxamide]
	transform to Form B	transform to Form A	Cc1ccc(-c2noc(C)c2COc2ccc(C(=O)NC3CCOCC3)nn2)cn1 [Form 4, 6-((5-methyl-3-(6-methylpyridin-3-yl)isoxazol-4-yl)methoxy)-N-(tetrahydropyran-4-yl)pyridazine-3-carboxamide]
